The values below come from ChEMBL document CHEMBL4619711, “Medicinal Chemistry of Inhibiting RING-Type E3 Ubiquitin Ligases” (J Med Chem, 2020).

A short description of data set [1]: Plasma clearance in mouse at iv dose. In kind it is ADME, organism-based.
Data set [2] in a line: Oral bioavailability in mouse. The note with it: in vivo. In kind it is ADME, organism-based.
Data set [3] can be described thus: Stability in rat blood assessed as parent compound remaining after 4 hrs. The data set is classed as ADME, tissue-based. The note with it: read-out: Stability.
Another data set deals with SJSA-1. Description: cells. The note with it: Homo sapiens.
The target in data set [4] is T1, E3 ubiquitin-protein ligase XIAP (Homo sapiens, UniProt P98170). Description: Inhibition of XIAP-BIR2 domain (unknown origin).
T1 sequence (P98170 whole entry, the tested form may be a part): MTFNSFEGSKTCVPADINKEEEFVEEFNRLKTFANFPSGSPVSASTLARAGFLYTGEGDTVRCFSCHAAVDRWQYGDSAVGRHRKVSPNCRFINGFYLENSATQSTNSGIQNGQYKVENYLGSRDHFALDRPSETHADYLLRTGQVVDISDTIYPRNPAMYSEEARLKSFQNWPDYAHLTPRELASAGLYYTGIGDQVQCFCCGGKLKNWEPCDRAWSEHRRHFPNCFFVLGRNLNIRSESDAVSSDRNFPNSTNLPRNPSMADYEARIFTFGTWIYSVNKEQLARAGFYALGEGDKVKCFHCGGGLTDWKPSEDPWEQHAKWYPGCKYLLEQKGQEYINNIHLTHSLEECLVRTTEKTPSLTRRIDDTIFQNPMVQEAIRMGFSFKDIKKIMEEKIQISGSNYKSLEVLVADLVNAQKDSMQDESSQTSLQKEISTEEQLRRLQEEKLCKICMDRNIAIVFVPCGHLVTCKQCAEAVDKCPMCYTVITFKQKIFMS
In data set [5] the target is T1, E3 ubiquitin-protein ligase XIAP. Description: Inhibition of XIAP-BIR3 domain (unknown origin).
Data set [6] has as its target von Hippel-Lindau disease tumor suppressor (Homo sapiens, UniProt P40337). Description: Inhibition of VHL (unknown origin) by fluorescence polarization assay.

Sequence of von Hippel-Lindau disease tumor suppressor (P40337 whole entry): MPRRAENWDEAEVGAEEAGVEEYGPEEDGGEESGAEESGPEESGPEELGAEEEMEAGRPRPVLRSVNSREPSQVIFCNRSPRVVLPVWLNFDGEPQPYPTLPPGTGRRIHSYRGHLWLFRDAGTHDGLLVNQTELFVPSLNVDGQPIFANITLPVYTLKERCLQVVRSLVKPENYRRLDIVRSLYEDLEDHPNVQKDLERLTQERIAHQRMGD

In data set [1], `CN[C@@H](C)C(=O)N[C@@H]1C(=O)N(Cc2c(C)ccc3ccccc23)c2ccc(C#N)cc2N(C(C)=O)[C@H]1C` showed a clearance of 4.3 mL/min/kg. This compound also returned a bioavailability in data set [2] of 28%.

Regarding `CN[C@@H](C)C(=O)N[C@H]1COc2ccccc2N(Cc2c(OC)ccc3cc(Br)ccc23)C1=O`, the remaining at 4 h in data set [3] was found to be 7%. The compound also gave a clearance in data set [1] of 521 mL/min/kg.

Consider `CC(C)(C)C[C@@H]1N[C@@H](C(=O)NCCN2CCOCC2)[C@H](c2cccc(Cl)c2F)[C@@]12C(=O)Nc1cc(Cl)ccc12`, for which the midpoint of inhibition in the data set with SJSA-1, the IC50, lay at 500 nM.

With `CN[C@@H](C)C(=O)NC1C(=O)N(Cc2c(C#N)n(-c3ccccc3C#N)c3ccccc23)c2ccccc2CC12CCOCC2` (some centres undefined), the IC50 in data set [4] worked out at 39 nM; in data set [5], 3100 nM. This compound registered a clearance in data set [1] of 41 mL/min/kg.

In the case of `CN[C@@H](C)C(=O)NC1C(=O)N(Cc2c(OC)ccc3cc(Br)ccc23)c2ccccc2CC12CCOCC2` (some centres undefined), the IC50 turned out to be 65 nM in data set [4] and 24000 nM in data set [5]. In addition, the remaining at 4 h in data set [3] worked out at 88%. In data set [1], this compound returned a clearance of 60 mL/min/kg.

Compound `Cc1ncsc1-c1ccc(CNC(=O)[C@@H]2C[C@@H](O)CN2C(=O)c2cccc(N)c2C)cc1` registered an IC50 in data set [6] of 670 nM.

In data set [6], `Cc1cc(CC(=O)N2C[C@H](O)C[C@H]2C(=O)NCc2ccccc2Cl)on1` registered an IC50 of 117000 nM.

For `CN[C@@H](C)C(=O)N[C@H]1CCc2ccccc2N(Cc2c(OC)ccc3cc(Br)ccc23)C1=O`, the values for the IC50 in data set [4] and in data set [5] were 194 nM and over 54000 nM, respectively. Besides, the remaining at 4 h in data set [3] is 40%. The compound further came in with a clearance in data set [1] of 155 mL/min/kg.

With `CC(C)(C)C[C@@H]1N[C@@H](C(=O)N[C@H]2CC[C@H](O)CC2)[C@H](c2cccc(Cl)c2F)[C@@]12C(=O)Nc1cc(Cl)ccc12`, half-maximal inhibition in the data set on SJSA-1 (IC50) was put at 92 nM.
